Experimental data: ChEMBL document CHEMBL3399980, “Synthesis and biological evaluation of novel selective androgen receptor modulators (SARMs). Part I” (Bioorg Med Chem, 2015); call rule not given here

Legend:
Androgen receptor [1] = target: T1, Androgen receptor (Homo sapiens, UniProt P10275); experiment: Displacement of [3H]mibolerone from androgen receptor (unknown origin) after 3 hrs
T1 sequence (P10275 whole entry): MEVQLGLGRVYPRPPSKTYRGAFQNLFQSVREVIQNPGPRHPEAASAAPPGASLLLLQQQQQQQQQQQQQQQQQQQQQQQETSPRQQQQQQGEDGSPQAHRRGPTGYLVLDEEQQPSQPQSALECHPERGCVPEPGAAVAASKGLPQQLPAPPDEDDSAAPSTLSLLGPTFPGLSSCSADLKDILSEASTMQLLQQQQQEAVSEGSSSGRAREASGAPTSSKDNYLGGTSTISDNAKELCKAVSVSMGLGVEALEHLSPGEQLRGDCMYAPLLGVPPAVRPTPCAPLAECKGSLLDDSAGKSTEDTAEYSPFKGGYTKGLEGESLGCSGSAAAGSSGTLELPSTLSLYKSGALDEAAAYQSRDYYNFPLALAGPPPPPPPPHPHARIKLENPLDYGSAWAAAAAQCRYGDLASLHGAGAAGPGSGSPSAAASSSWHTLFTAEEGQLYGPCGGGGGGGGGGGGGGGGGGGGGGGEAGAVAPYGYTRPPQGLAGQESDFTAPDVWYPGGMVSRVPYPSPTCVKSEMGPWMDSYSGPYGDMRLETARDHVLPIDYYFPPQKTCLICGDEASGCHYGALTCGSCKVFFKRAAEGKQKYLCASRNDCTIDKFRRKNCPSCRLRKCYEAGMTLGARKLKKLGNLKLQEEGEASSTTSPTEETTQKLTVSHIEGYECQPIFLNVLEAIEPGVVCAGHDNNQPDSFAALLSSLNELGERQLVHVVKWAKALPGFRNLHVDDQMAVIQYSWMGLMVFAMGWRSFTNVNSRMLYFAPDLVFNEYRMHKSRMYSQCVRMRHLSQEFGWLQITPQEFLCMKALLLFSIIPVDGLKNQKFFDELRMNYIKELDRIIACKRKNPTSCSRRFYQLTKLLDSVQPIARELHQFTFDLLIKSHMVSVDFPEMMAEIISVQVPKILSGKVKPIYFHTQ

Androgen receptor [2] = target: T1, Androgen receptor; experiment: Modulation of androgen receptor (unknown origin) expressed in Cos7 cells assessed as luciferase activity after 24 hrs; type: cell-based, COS-7
Rattus norvegicus [3] = experiment: Toxicity in male CD(SD)IGS rat assessed as effect on prostate weight at 1.5 mg/kg, po bid for 4 days by Hershberger assay; type: organism-based, Prostate gland; parameters: dose 1.5 mg/kg, route oral; details: in vivo, 96 h
Rattus norvegicus [4] = experiment: Toxicity in male CD(SD)IGS rat assessed as effect on seminal vesicle weight at 1.5 mg/kg, po bid for 4 days by Hershberger assay; type: organism-based; parameters: dose 1.5 mg/kg, route oral; details: in vivo, 96 h
Brain = experiment: Drug uptake in male Sprague-Dawley rat brain at 5 mg/kg, po; type: ADME, organism-based; parameters: dose 5 mg/kg, route oral; details: in vivo
Plasma = experiment: Drug uptake in male Sprague-Dawley rat plasma at 5 mg/kg, po; type: ADME, organism-based; parameters: dose 5 mg/kg, route oral; details: in vivo
Prostate gland = experiment: Drug uptake in male Sprague-Dawley rat prostate at 5 mg/kg, po; type: ADME, organism-based; parameters: dose 5 mg/kg, route oral; details: in vivo
[5] = Drug uptake in male Sprague-Dawley rat levator ani muscle at 5 mg/kg, po; type: ADME, organism-based; parameters: dose 5 mg/kg, route oral; details: in vivo
Rattus norvegicus [6] = experiment: Induction of sexual behavior in castrated male CD(SD)IGS rat assessed as pseudopregnancy rate in female rat at 2.5 mg/kg, po bid measured on day 21 after first treatment (reference value: 0%); type: functional
Rattus norvegicus [7] = experiment: Induction of sexual behavior in castrated male CD(SD)IGS rat assessed as pseudopregnancy rate in female rat at 3.5 mg/kg, po bid measured on day 21 after first treatment (reference value: 0%); type: functional
Rattus norvegicus [8] = experiment: Induction of sexual behavior in castrated male CD(SD)IGS rat assessed as pseudopregnancy rate in female rat at 5 mg/kg, po bid measured on day 21 after first treatment (reference value: 0%); type: functional
Rattus norvegicus [9] = experiment: Induction of levator ani muscle weight in male CD(SD)IGS rat at 1.5 mg/kg, po bid for 4 days by Hershberger assay; type: functional
Rattus norvegicus [10] = experiment: Induction of sexual behavior in castrated male CD(SD)IGS rat assessed as pseudopregnancy rate in female rat at 0.5 mg/kg, po bid measured on day 21 after first treatment (reference value: 0%); type: functional
Rattus norvegicus [11] = experiment: Induction of sexual behavior in castrated male CD(SD)IGS rat assessed as pseudopregnancy rate in female rat at 1.5 mg/kg, po bid measured on day 21 after first treatment (reference value: 0%); type: functional

SMILES	IC50 (Androgen receptor [1])	EC50 (Androgen receptor [2])	other results
N#Cc1ccc(N2CCC[C@@H]2C(N)=O)c2ccccc12	34 nM	21 nM	
CC(C)[C@H]1CCCN1c1ccc(C#N)c2ccccc12	1.4 nM	2 nM	
C[C@H]1[C@@H](CO)CCN1c1ccc(C#N)c2ccccc12	4.1 nM	1.2 nM	
CC1(C)CCCN1c1ccc(C#N)c2ccccc12	7 nM	21 nM	
COC(=O)[C@H]1CCN(c2ccc(C#N)c3ccccc23)[C@H]1C	7.5 nM	> 1000 nM	
N#Cc1ccc(N2CCCC2)c2ccccc12	2.5 nM	2.5 nM	
C[C@H]1[C@@H](C(C)(C)O)CCN1c1ccc(C#N)c2ccccc12	1.4 nM	45 nM	Activity (Rattus norvegicus [3]): Non-toxic; Activity (Rattus norvegicus [4]): Non-toxic; Drug uptake (Brain): Active; Drug uptake (Plasma): Active; Drug uptake (Prostate gland): Active; Drug uptake [5]: Active; Activity (Rattus norvegicus [6]): 57%; Activity (Rattus norvegicus [7]): 57%; Activity (Rattus norvegicus [8]): 50%
N#Cc1ccc(N2CCC[C@@H]2C#N)c2ccccc12	1 nM	160 nM	
O=C(O)c1ccc(N2CCCC2)c2ccccc12	> 10000 nM		
C[C@H]1[C@H](O)CCN1c1ccc(C#N)c2ccccc12	2.4 nM	0.32 nM	Activity (Rattus norvegicus [9]): 150%; Activity (Rattus norvegicus [3]): Non-toxic; Activity (Rattus norvegicus [4]): Non-toxic; Activity (Rattus norvegicus [10]): 38%; Activity (Rattus norvegicus [11]): 67%; Activity (Rattus norvegicus [8]): 67%
CC[C@H]1CCCN1c1ccc(C#N)c2ccccc12	1.1 nM	0.24 nM	
C[C@H]1[C@@H](O)CCN1c1ccc(C#N)c2ccccc12	2.2 nM	0.25 nM	Activity (Rattus norvegicus [9]): 150%; Activity (Rattus norvegicus [3]): Non-toxic; Activity (Rattus norvegicus [4]): Non-toxic; Activity (Rattus norvegicus [10]): 44%; Activity (Rattus norvegicus [11]): 70%; Activity (Rattus norvegicus [8]): 80%
C[C@H]1C(=O)CCN1c1ccc(C#N)c2ccccc12	37 nM	2.2 nM	
C[C@@H]1CCCN1c1ccc(C#N)c2ccccc12	20 nM	> 1000 nM	
O=[N+]([O-])c1ccc(N2CCCC2)c2ccccc12	2.5 nM	41 nM	
C[C@H]1CCCN1c1ccc(C#N)c2ccccc12	0.84 nM	0.19 nM	
